What was measured:
MCF7 = test: Antiproliferative activity against human MCF7 cells at 10 uM relative to control; type: functional, cell-based
A2780 = test: Antiproliferative activity against human A2780 cells; type: functional, cell-based
MDCK-II = test: Antimigratory activity against MDCK2 cells assessed as inhibition of HGF-induced cell scattering at 1 uM pretreated for 18 hrs followed by HGF addition measured after 20 to 24 hrs by crystal violet staining-based assay relative to control; type: functional; conditions: Canis lupus familiaris
[1] = (§1) Inhibition of bovine brain tubulin polymerization; design: species or system Bos taurus
Bos taurus = species on record: Bos taurus; test: as §1

| EC50 (MCF7) [nM] | EC50 (A2780) [nM] | Structure (SMILES) | inhibition at 1 µM (MDCK-II) [%] | further results |
| --- | --- | --- | --- | --- |
| 776 | 464 | O=C(Nc1ccc(C2CC2)cn1)c1cncnc1 | – | – |
| – | – | O=C(Nc1ccc2ccccc2n1)c1cnco1 | -58 | – |
| 109 | 29 | Cc1ncc(C(=O)Nc2ccc(-c3ccccc3)cn2)cn1 | – | – |
| > 10000 | > 10000 | O=C(Nc1ccc(-c2ccccc2)cn1)c1nccnc1-c1ccccc1 | – | – |
| 127 | 255 | O=C(Nc1ccc(-c2ccccc2Cl)cn1)c1cncnc1 | – | – |
| – | – | Cc1nc(NC(=O)c2ccc(N3CCCCC3)c([N+](=O)[O-])c2)ccc1I | 29.4 | – |
| – | – | Cc1nc(NC(=O)c2cncnc2)cnc1Br | -42 | – |
| – | – | O=C(Nc1ccc(-c2ccccc2)cn1)c1cncc([N+](=O)[O-])c1 | -32 | – |
| – | – | Cc1cc(NC(=O)c2cccc([N+](=O)[O-])c2)ccc1I | 53.1 | – |
| – | – | O=C(Nc1ccc(-c2cccc(C3CC3)c2)cn1)c1cncnc1 | – | IC50 [1]: 1030 nM; inhibition (Bos taurus): Dose-dependent effect |
| > 10000 | > 10000 | O=C(Nc1cncnc1)c1ccc(-c2ccccc2)cn1 | – | – |
| – | – | Cc1cc(NC(=O)c2ccc(C)c([N+](=O)[O-])c2)c(C)cc1I | 46.9 | – |
| > 10000 | > 10000 | O=C(Nc1ccc(-c2ccc(Cl)cc2)cn1)c1cncnc1 | – | – |
| – | – | O=C(Nc1ccc2ccccc2n1)c1nccs1 | -51 | – |
| – | – | O=C(Nc1ncc[nH]1)c1nccs1 | -67 | – |
| – | – | Cc1nc(NC(=O)c2cncc([N+](=O)[O-])c2)cnc1Br | -26 | – |
| – | – | Cc1nc(NC(=O)c2cnco2)ccc1I | 32 | – |
| – | – | O=C(Nc1cscn1)c1cncnc1 | -103 | – |
| – | – | O=C(Nc1ccc2ccccc2n1)c1cccc(C(F)(F)F)c1 | -59 | – |
| – | – | O=C(Nc1ncc[nH]1)c1cnco1 | -50 | – |
| 8330 | > 10000 | O=C(Nc1cnc(-c2ccccc2)cn1)c1cncnc1 | – | – |
| – | – | Cc1nc(NC(=O)c2cccc([N+](=O)[O-])c2)cnc1Br | -33 | – |

| EC50 (MCF7) [nM] | EC50 (A2780) [nM] | Structure (SMILES) | inhibition at 1 µM (MDCK-II) [%] | further results |
| --- | --- | --- | --- | --- |
| – | – | O=C(Nc1ccc2ccccc2n1)c1cncnc1 | -55 | – |
| – | – | Cc1nc(NC(=O)c2cnc3cccnc3c2)cnc1Br | -25 | – |
| > 10000 | > 10000 | CSc1ncncc1C(=O)Nc1ccc(-c2ccccc2)cn1 | – | – |
| – | – | Cc1nc(NC(=O)c2cccc([N+](=O)[O-])c2)ccc1Cl | -5 | – |
| 6970 | 5920 | O=C(Nc1ccc(-c2cccnc2)cn1)c1cncnc1 | – | – |
| > 10000 | > 10000 | O=C(Nc1ccc(-c2ccccc2)cn1)c1ccncn1 | – | – |
| – | – | O=C(Nc1ccc(-c2ccccc2)cn1)c1cccc([N+](=O)[O-])c1 | 29 | – |
| – | – | Cc1nc(NC(=O)c2cccc(C(F)(F)F)c2)ccc1Cl | -13 | – |
| – | – | Cc1nc(NC(=O)c2cncnc2)ccc1Cl | -18 | – |
| – | – | CCOc1ccc(C(=O)Nc2cccc(C)n2)cc1[N+](=O)[O-] | 31.7 | – |
| – | – | O=C(Nc1cscn1)c1cnco1 | -54 | – |
| – | – | Cc1cc(NC(=O)c2cccc([N+](=O)[O-])c2C)c(C)cc1I | 36.1 | – |
| – | – | O=C(Nc1ncc(Br)cc1Br)c1cccc([N+](=O)[O-])c1 | 42.4 | – |
| 220 | 78 | O=C(Nc1ccc(-c2ccccc2)cn1)c1cccnc1 | – | – |
| – | – | Cc1cc(NC(=O)c2cccc([N+](=O)[O-])c2)ccc1O | 34.6 | – |
| – | – | Cc1ccc(C(=O)Nc2ccc(-c3cccc(C4CCO4)c3)cn2)cn1 (stereo unspecified) | – | IC50 [1]: 295 nM; inhibition (Bos taurus): Dose-dependent effect |
| > 10000 | 1530 | O=C(Nc1ccc(-c2ccccc2)cn1)c1cnc(-c2ccco2)nc1 | – | – |
| – | – | CCOc1ccc(C(=O)Nc2ccc(I)cn2)cc1[N+](=O)[O-] | 69.9 | – |
| 149 | 49 | CNc1ncc(C(=O)Nc2ccc(-c3ccccc3)cn2)cn1 | – | – |
| – | – | Cc1nc(NC(=O)c2nccs2)ccc1I | -20 | – |
| – | – | Cc1nc(NC(=O)c2cnco2)cnc1Br | -21 | – |
| > 10000 | > 10000 | CN(C(=O)c1cnccn1)c1ccc(-c2ccccc2)cn1 | – | – |

| EC50 (MCF7) [nM] | EC50 (A2780) [nM] | Structure (SMILES) | inhibition at 1 µM (MDCK-II) [%] | further results |
| --- | --- | --- | --- | --- |
| > 10000 | > 10000 | O=S(=O)(Nc1ccc(-c2ccccc2)cn1)c1cccnc1 | – | – |
| – | – | Cc1nc(NC(=O)c2cnc3cccnc3c2)ccc1Cl | 12 | – |
| – | – | Cc1ncc(C(=O)Nc2ccc(-c3cccc(NC4CC4)c3)cn2)cn1 | – | IC50 [1]: 319 nM; inhibition (Bos taurus): Dose-dependent effect |
| – | – | O=C(Nc1ccc2ccccc2n1)c1cccc([N+](=O)[O-])c1 | -59 | – |
| – | – | Cc1nc(NC(=O)c2cccc([N+](=O)[O-])c2)ccc1Br | 88.6 | – |
| – | – | O=C(Nc1ccc2ccccc2n1)c1cnc2cccnc2c1 | -69 | – |
| – | – | Cc1nc(NC(=O)c2cnco2)ccc1Cl | -35 | – |
| – | – | Cc1nc(NC(=O)c2cccc(C(F)(F)F)c2)cnc1Br | -6 | – |
| – | – | O=C(Nc1ncc[nH]1)c1cccc(C(F)(F)F)c1 | -72 | – |
| 272 | 68 | O=C(Nc1ncc(-c2ccccc2)cn1)c1cncnc1 | – | – |
| > 10000 | > 10000 | O=C(Nc1ccc(-c2ccccc2)cn1)c1ncccn1 | – | – |
| 651 | 612 | O=C(Nc1ccc(-c2ccccn2)cn1)c1cncnc1 | – | – |
| – | – | Cc1ncc(C(=O)Nc2ccc(-c3cccc(C4CC4)c3)cn2)cn1 | – | IC50 [1]: 885 nM; inhibition (Bos taurus): Dose-dependent effect |
| – | – | Cc1nc(NC(=O)c2nccs2)cnc1Br | -36 | – |
| > 10000 | 4680 | O=C(Nc1ccc(-c2ccncc2)cn1)c1cncnc1 | – | – |
| – | – | Cc1nc(NC(=O)c2cnc3cccnc3c2)ccc1I | 33 | – |
| – | – | Cc1ncc(C(=O)Nc2ccc(-c3cccc(OC4CC4)c3)cn2)cn1 | – | IC50 [1]: 817 nM; inhibition (Bos taurus): Dose-dependent effect |
| 317 | 102 | O=C(Nc1ccc(-c2ccccc2)cn1)c1cnccn1 | – | – |
| – | – | Cc1nc(NC(=O)c2cncc([N+](=O)[O-])c2)ccc1Cl | -20 | – |
| > 10000 | > 10000 | O=C(COc1cncnc1)Nc1ccc(-c2ccccc2)cn1 | – | – |
| – | – | Cc1nc(NC(=O)c2nccs2)ccc1Cl | -28 | – |
| – | – | CC[C@]1(O)C[C@H]2CN(CCc3c([nH]c4ccccc34)[C@@](C(=O)OC)(c3cc4c(cc3OC)N(C=O)[C@H]3[C@@](O)(C(=O)OC)[C@H](OC(C)=O)[C@]5(CC)C=CCN6CC[C@]43[C@@H]65)C2)C1 [VINCRISTINE] | – | IC50 [1]: 400 to 684 nM |

| EC50 (MCF7) [nM] | EC50 (A2780) [nM] | Structure (SMILES) | inhibition at 1 µM (MDCK-II) [%] | further results |
| --- | --- | --- | --- | --- |
| – | – | O=C(Nc1ccc(-c2ccccc2)cn1)c1cnco1 | -10 | – |
| – | – | O=C(Nc1ccc2ccccc2n1)c1cncc([N+](=O)[O-])c1 | -63 | – |
| > 10000 | > 10000 | Cc1ncncc1C(=O)Nc1ccc(-c2ccccc2)cn1 | – | – |
| > 10000 | > 10000 | O=C(Nc1ccc(-c2ccccc2)cn1)c1cncnc1-c1ccccc1 | – | – |
| – | – | O=C(Nc1ccccn1)c1cccc([N+](=O)[O-])c1 | 45.3 | – |
| – | – | Cc1cc(C)nc(NC(=O)c2cccc([N+](=O)[O-])c2)c1 | 52.5 | – |
| – | – | Cc1nc(NC(=O)c2cncc([N+](=O)[O-])c2)ccc1I | 21 | – |
| – | – | Cc1nc(NC(=O)c2cccc(C(F)(F)F)c2)ccc1I | 72 | – |
| – | – | O=C(Nc1cscn1)c1cccc(C(F)(F)F)c1 | -73 | – |
| > 10000 | > 10000 | O=C(Nc1ccc(-c2ccccc2)cc1)c1cncnc1 | – | – |
| 66 | 60 | O=C(Nc1ccc(-c2ccsc2)cn1)c1cncnc1 | – | – |
| > 10000 | > 10000 | O=C(Cc1cncnc1)Nc1ccc(-c2ccccc2)cn1 | – | – |
| – | – | Cc1nc(NC(=O)c2cc([N+](=O)[O-])ccc2N2CCOCC2)ccc1I | 31.7 | – |
| – | – | O=C(Nc1ccc(-c2ccccc2)cn1)c1cnc2cccnc2c1 | 181 | – |
| – | – | O=C(Nc1ccc(-c2ccccc2)cn1)c1nccs1 | -13 | – |
| – | – | Cc1nc(NC(=O)c2ccc(N3CCCC3)c([N+](=O)[O-])c2)ccc1I | 44 | – |
| 605 | 196 | O=C(Nc1ccc(-c2ccco2)cn1)c1cncnc1 | – | – |
| – | – | O=C(Nc1ncc[nH]1)c1cccc([N+](=O)[O-])c1 | -77 | – |
| 205 | 271 | O=C(Nc1ccc(-c2ccoc2)cn1)c1cncnc1 | – | – |
| – | – | O=C(Nc1ccc(-c2ccccc2)cn1)c1cccc(C(F)(F)F)c1 | -2 | – |

| Structure (SMILES) | EC50 (MCF7) [nM] | EC50 (A2780) [nM] | inhibition at 1 µM (MDCK-II) [%] | further results |
| --- | --- | --- | --- | --- |
| c1ccc(-c2ccc(NCc3cncnc3)nc2)cc1 | > 10000 | > 10000 | – | – |

Reference: ChEMBL document CHEMBL4043145, “Pyridine-pyrimidine amides that prevent HGF-induced epithelial scattering by two distinct mechanisms” (Bioorg Med Chem Lett, 2017)
